Test results: US4826813A, “4'-Methyl-β-mercapto-β,β-cyclopentamethylenepropionic acid vasopressin antagonists” (SmithKline Beckman Corporation, priority 1987, dated 1989)
pKi: −log10 of the molar value. *1 amine or outer side, *2 acyl side, *3 side chain or, on linkers, in order; H or OH if unused. Where a SMILES comes first, the peptide text is derived from it. Bridges are numbered along the chain shown (N, C = ends). [ ]: non-standard residue; d: D form. X2 = C[C@H]1CC[C@@](CC(=O)[*:1])(S[*:2])CC1

Columns and labels:
[1] = biological target: vasopressin receptors (V2 -receptors) (Sus scrofa, UniProt P32307); test: biochemical
Description: (§1) V2 -antagonistic activity toward the natural anti-diuretic hormone (anti-ADH activity) is determined, in vitro, in the medullary tissue of hog or human kidneys and, in vivo, in the hydropenic rat. The in vitro assay procedures for vasopressin stimulated adenylate cyclase activation or vasopressin binding activity are described by F. Stassen et al., J. Pharmacology and Experimental Therapeutics 223, 50-54 (1982). V1 -antagonistic activity is determined by procedures using the rat thoracic aorta tissue and plasma membranes of rat liver. These procedures are described in the noted Stassen publication and in a publication at the 1st International Conference on Diuretics, Miami, Fla., March (1984). Oxytocin antagonism is determined as described by W. Sawyer et al., Endocrinology 106, 81 (1979).
(§2) The hydropenic rat screen and the hog kidney assay are known to the art, Huffman et al., U.S. Pat. No. 4,469,679.

[2] = biological target: vasopressin stimulated adenylate cyclase (V2 -receptors) (Sus scrofa, UniProt P32307); test: biochemical
Description: as §1, §2

vasopressin receptors (V2 -receptors), sequence (P32307 whole entry): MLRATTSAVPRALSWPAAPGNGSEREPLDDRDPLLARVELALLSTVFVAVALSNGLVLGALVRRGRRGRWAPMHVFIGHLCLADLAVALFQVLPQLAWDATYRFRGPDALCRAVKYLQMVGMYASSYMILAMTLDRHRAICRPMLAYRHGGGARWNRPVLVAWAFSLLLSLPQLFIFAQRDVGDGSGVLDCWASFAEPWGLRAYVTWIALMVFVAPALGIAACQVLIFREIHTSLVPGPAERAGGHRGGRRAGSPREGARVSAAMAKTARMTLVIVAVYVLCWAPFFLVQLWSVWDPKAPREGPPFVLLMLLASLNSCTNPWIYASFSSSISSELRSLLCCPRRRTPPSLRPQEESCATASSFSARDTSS
vasopressin stimulated adenylate cyclase (V2 -receptors), sequence (P32307 whole entry): as above

Row | Compound | pKi [1] | pKi [2]
1 | CCOc1ccc(C[C@H]2NC(=O)C[C@]3(CC[C@H](C)CC3)SSC[C@@H](C(=O)N3CCC[C@H]3C(=O)N[C@@H](CCCNC(=N)N)C(=O)NCC(N)=O)NC(=O)[C@H](CC(N)=O)NC(=O)[C@H](C(C)C)NC(=O)[C@H](Cc3ccccc3)NC2=O)cc1 [DTyr(Et) GlyNH2, [1-(4'-methyl-β-mercapto-β,β-cyclopentamethylene propionic acid)-2-(O-ethyl)-D-tyrosine-4-valine-8-arginine]-vasopressin] ([dY](Et)FVNCPRG-NH2; linker N-5 via X2) | 7.89 | 8.38
2 | CCOc1ccc(C[C@H]2NC(=O)C[C@]3(CC[C@H](C)CC3)SSC[C@@H](C(=O)N3CCC[C@H]3C(=O)N[C@@H](CCCNC(=N)N)C(N)=O)NC(=O)[C@H](CC(N)=O)NC(=O)[C@H](C(C)C)NC(=O)[C@H](Cc3ccccc3)NC2=O)cc1 [DTyr(Et) NH2, [1-(4'-methyl-β-mercapto-β,β-cyclopentamethylenepropionic acid)-2-(O-ethyl)-D-tyrosine-4-valine-8-arginine-9-desglycine]-vasopressin] ([dY](Et)FVNCPR-NH2; linker N-5 via X2) | 7.72 | 
3 | COc1ccc(C[C@@H]2NC(=O)C[C@]3(CC[C@H](C)CC3)SSC[C@@H](C(=O)N3CCC[C@H]3C(=O)N[C@@H](CCCNC(=N)N)C(=O)NCC(N)=O)NC(=O)[C@H](CC(N)=O)NC(=O)[C@H](C(C)C)NC(=O)[C@H](Cc3ccccc3)NC2=O)cc1 [LTyr(Me) GlyNH2] (Y(Me)FVNCPRG-NH2; linker N-5 via X2) | 6.89 | 7.36
